Assay results: ChEMBL document CHEMBL4765432, “Design and synthesis of novel Flavone-based histone deacetylase inhibitors antagonizing activation of STAT3 in breast cancer” (Eur J Med Chem, 2020)
The source made the active and inactive calls. The calls are words filed in the database; no cut-off is given here.

How the values were obtained:
[1] = test system: MDA-MB-468; assay: Potency index, ratio of IC50 of SAHA to IC50 of compound for cytotoxicity against human MDA-MB-468 cells assessed as reduction in cell viability incubated for 48 hrs by MTT assay; type: functional
[2] = test system: HEK-293T; assay: Cytotoxicity against human HEK293T cells assessed as reduction in cell viability incubated for 48 hrs by MTT assay; type: ADME, cell-based
[3] = Tmax in Sprague-Dawley rat at 20 mg/kg, po measured upto 12 hrs by LC-MS/MS analysis; type: ADME, organism-based; settings: in vivo
[4] = test system: Bcap37; assay: Cytotoxicity against human Bcap37 cells assessed as reduction in cell viability incubated for 48 hrs by MTT assay; type: functional, cell-based; settings: Bcap37, 48 h
[5] = Cmax in Sprague-Dawley rat at 20 mg/kg, iv measured upto 12 hrs by LC-MS/MS analysis; type: ADME, organism-based; parameters: route intravenous, dose 20 mg/kg, time <=12; settings: in vivo
[6] = test system: MDA-MB-231; assay: Induction of apoptosis in human MDA-MB-231 cells assessed as necrotic cells at 2.5 uM incubated for 72 hrs by annexinV-FITC and PI staining based flow cytometry analysis (reference value: 0.330 %); type: functional
[7] = test system: MDA-MB-231; assay: Induction of cell cycle arrest in human MDA-MB-231 cells assessed as S phase accumulation at 1 uM incubated for 24 hrs by PI staining based flow cytometry analysis (reference value: 43.82 %); type: functional
[8] = target: Histone deacetylase 8 (Homo sapiens, UniProt Q9BY41); assay: Inhibition of recombinant human N-terminal GST-tagged full length HDAC-8 expressed in baculovirus infected in Sf9 cells using Boc-Lys (q-Ac)-AMC as substrate incubated for 10 mins followed by substrate addition and measured after 30 mins by fluorescence based assay
Sequence of Histone deacetylase 8 (Q9BY41 whole entry): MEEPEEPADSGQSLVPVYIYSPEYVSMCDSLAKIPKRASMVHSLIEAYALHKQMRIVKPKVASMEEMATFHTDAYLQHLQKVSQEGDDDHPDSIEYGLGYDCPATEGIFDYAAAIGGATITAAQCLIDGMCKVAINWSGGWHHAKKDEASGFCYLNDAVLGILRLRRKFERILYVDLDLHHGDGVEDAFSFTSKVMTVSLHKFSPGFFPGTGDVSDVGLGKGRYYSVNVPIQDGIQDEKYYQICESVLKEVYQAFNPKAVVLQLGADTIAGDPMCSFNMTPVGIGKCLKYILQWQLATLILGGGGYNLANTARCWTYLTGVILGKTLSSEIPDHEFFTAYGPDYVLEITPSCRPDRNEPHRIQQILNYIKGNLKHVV

[9] = target: Histone deacetylase 7 (Homo sapiens, UniProt Q8WUI4); assay: Inhibition of recombinant human N-terminal GST-tagged HDAC-7 (501 to end residues) expressed in baculovirus infected in Sf9 cells using Boc-Lys (q-Ac)-AMC as substrate incubated for 10 mins followed by substrate addition and measured after 30 mins by fluorescence based assay
Sequence of Histone deacetylase 7 (Q8WUI4 whole entry): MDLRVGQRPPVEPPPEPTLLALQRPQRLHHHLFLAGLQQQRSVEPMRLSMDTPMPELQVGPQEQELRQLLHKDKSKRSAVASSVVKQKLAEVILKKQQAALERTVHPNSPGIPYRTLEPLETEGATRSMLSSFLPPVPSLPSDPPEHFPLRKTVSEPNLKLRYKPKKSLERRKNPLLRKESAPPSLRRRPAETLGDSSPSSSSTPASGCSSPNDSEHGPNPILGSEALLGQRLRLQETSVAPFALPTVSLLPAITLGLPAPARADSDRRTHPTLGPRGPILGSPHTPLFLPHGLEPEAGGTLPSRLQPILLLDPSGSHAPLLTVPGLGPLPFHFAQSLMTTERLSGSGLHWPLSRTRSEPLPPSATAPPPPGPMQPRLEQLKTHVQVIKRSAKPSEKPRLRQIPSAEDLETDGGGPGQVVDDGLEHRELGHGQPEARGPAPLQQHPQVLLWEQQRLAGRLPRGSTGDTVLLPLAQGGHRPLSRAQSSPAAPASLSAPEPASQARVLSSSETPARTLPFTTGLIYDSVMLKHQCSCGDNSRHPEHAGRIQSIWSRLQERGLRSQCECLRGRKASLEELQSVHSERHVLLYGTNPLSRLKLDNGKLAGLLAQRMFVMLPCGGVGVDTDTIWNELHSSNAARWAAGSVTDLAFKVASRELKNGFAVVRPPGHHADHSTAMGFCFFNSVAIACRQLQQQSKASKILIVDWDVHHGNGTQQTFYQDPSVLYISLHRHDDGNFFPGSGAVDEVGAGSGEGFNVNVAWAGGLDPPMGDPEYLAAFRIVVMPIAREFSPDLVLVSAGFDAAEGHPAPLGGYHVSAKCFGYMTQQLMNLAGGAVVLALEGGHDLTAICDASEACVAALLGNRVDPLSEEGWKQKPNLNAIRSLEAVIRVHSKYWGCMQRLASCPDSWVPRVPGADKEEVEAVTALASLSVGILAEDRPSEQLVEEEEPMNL

[10] = target: Histone deacetylase 4 (Homo sapiens, UniProt P56524); assay: Inhibition of recombinant human N-terminal GST-tagged HDAC-4 (612 to end residues) expressed in baculovirus infected in Sf9 cells using Boc-Lys (q-Ac)-AMC as substrate incubated for 10 mins followed by substrate addition and measured after 30 mins by fluorescence based assay
Sequence of Histone deacetylase 4 (P56524 whole entry): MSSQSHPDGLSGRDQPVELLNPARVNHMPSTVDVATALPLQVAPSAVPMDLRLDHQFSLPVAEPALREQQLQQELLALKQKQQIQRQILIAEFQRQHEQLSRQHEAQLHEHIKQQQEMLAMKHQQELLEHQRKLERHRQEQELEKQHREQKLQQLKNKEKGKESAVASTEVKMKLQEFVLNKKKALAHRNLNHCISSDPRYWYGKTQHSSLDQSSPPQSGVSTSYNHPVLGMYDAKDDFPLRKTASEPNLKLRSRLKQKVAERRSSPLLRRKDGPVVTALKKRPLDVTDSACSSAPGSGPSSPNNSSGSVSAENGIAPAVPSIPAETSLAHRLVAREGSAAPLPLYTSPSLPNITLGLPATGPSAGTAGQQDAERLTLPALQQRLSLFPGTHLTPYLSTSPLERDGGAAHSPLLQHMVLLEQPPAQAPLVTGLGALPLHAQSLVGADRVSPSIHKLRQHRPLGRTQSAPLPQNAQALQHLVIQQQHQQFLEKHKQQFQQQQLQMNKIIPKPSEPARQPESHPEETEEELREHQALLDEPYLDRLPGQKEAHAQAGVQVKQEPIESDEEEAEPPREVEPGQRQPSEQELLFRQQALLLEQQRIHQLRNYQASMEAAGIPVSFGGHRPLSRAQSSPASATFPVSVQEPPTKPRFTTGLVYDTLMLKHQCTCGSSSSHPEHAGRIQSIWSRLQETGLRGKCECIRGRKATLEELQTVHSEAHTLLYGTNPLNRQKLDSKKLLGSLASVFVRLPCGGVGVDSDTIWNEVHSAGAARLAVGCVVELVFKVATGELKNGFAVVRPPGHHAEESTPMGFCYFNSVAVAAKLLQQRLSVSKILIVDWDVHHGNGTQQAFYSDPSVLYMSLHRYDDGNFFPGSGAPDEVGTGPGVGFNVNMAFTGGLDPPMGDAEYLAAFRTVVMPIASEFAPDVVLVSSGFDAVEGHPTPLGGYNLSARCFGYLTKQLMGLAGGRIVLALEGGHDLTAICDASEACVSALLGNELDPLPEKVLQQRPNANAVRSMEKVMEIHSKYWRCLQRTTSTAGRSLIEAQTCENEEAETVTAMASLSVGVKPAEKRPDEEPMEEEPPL

[11] = test system: 4T1; assay: Induction of cell cycle arrest in mouse 4T1 cells assessed as G2/M phase accumulation at 2 uM incubated for 24 hrs by PI staining based flow cytometry analysis (reference value: 38.51 %); type: functional
[12] = test system: MDA-MB-231; assay: Induction of apoptosis in human MDA-MB-231 cells assessed as effect on Bax expression at 0.5 to 10 uM incubated for 48 hrs by Western blot analysis; type: functional, cell-based; settings: dose 0.5-10 µM
[13] = test system: MCF7; assay: Cytotoxicity against human MCF7 cells assessed as reduction in cell viability incubated for 48 hrs by MTT assay; type: functional, cell-based; settings: MCF7, 48 h
[14] = Toxicity in BALB/c mouse xenografted with mouse 4T1 cells assessed as effect on body weight at 20 mg/kg, ip administered for 22 days and measured on day 22; type: organism-based; settings: in vivo, 528 h, time 22 day
[15] = Oral bioavailability in Sprague-Dawley rat at 20 mg/kg measured upto 12 hrs by LC-MS/MS analysis; type: ADME, organism-based; settings: in vivo
[16] = test system: 4T1; assay: Antitumor activity against mouse 4T1 cells xenografted in BALB/c mouse assessed as tumor growth inhibition at 20 mg/kg, ip administered for 22 days and measured on day 22; type: functional, organism-based; settings: time 22.0 day
[17] = MRT in Sprague-Dawley rat at 20 mg/kg, iv measured upto 12 hrs by LC-MS/MS analysis; type: ADME, organism-based; settings: in vivo
[18] = test system: 4T1; assay: Induction of cell cycle arrest in mouse 4T1 cells assessed as S phase accumulation at 2 uM incubated for 24 hrs by PI staining based flow cytometry analysis (reference value: 19.43 %); type: functional
[19] = test system: MDA-MB-231; assay: Induction of apoptosis in human MDA-MB-231 cells assessed as viable cells at 1 uM incubated for 72 hrs by annexinV-FITC and PI staining based flow cytometry analysis (reference value: 90.3 %); type: functional; settings: read-out: Activity
[20] = test system: NCI-H460; assay: Cytotoxicity against human NCI-H460 cells assessed as reduction in cell viability incubated for 48 hrs by MTT assay; type: functional, cell-based; settings: NCI-H460, 48 h
[21] = test system: 4T1; assay: Induction of apoptosis in mouse 4T1 cells assessed as viable cells at 1 uM incubated for 72 hrs by annexinV-FITC and PI staining based flow cytometry analysis (reference value: 91.1 %); type: functional; settings: read-out: Activity
[22] = test system: MDA-MB-231; assay: Induction of apoptosis in human MDA-MB-231 cells assessed as increase in caspase-3 cleavage incubated for 48 hrs by Western blot analysis; type: functional, cell-based; settings: dose 0.5-10 µM
[23] = target: Histone deacetylase 9 (Homo sapiens, UniProt Q9UKV0); assay: Inhibition of recombinant human N-terminal GST-tagged HDAC-9 (548 to end residues) expressed in baculovirus infected in Sf9 cells using Boc-Lys (q-Ac)-AMC as substrate incubated for 10 mins followed by substrate addition and measured after 30 mins by fluorescence based assay
Sequence of Histone deacetylase 9 (Q9UKV0 whole entry): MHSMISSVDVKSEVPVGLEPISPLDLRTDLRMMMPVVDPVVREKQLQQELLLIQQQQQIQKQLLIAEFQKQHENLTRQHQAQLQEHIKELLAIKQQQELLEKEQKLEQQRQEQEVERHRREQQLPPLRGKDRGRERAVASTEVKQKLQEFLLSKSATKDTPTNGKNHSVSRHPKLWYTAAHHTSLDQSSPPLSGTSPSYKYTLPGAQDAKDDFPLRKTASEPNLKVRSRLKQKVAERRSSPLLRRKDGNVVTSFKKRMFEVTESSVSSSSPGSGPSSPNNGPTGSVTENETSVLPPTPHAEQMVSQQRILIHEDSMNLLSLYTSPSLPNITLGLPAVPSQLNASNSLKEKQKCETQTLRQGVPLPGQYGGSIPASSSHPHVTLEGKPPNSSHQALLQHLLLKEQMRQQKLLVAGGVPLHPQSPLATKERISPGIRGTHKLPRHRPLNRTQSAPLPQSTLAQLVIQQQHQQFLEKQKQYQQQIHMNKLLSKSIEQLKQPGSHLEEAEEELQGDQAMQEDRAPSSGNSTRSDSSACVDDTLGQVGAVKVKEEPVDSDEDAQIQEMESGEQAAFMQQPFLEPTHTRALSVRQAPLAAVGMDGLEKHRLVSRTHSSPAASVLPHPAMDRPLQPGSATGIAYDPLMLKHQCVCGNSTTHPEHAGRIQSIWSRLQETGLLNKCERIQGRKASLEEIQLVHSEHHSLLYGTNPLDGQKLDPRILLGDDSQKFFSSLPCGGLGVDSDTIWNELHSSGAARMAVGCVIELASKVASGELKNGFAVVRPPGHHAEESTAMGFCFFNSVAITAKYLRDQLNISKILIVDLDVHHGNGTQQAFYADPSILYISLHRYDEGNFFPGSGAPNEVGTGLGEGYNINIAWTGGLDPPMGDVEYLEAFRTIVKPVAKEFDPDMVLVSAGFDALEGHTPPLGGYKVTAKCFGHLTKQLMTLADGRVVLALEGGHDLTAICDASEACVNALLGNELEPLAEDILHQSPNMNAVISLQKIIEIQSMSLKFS

[24] = test system: Bel-7402; assay: Cytotoxicity against human Bel-7402 cells assessed as reduction in cell viability incubated for 48 hrs by MTT assay; type: functional, cell-based; settings: Bel-7402, 48 h
[25] = target: Histone deacetylase 2 (Homo sapiens, UniProt Q92769); assay: Inhibition of recombinant human C-terminal GST-tagged full length HDAC-2 expressed in baculovirus infected in Sf9 cells using Boc-Lys (q-Ac)-AMC as substrate incubated for 10 mins followed by substrate addition and measured after 30 mins by fluorescence based assay
Sequence of Histone deacetylase 2 (Q92769 whole entry): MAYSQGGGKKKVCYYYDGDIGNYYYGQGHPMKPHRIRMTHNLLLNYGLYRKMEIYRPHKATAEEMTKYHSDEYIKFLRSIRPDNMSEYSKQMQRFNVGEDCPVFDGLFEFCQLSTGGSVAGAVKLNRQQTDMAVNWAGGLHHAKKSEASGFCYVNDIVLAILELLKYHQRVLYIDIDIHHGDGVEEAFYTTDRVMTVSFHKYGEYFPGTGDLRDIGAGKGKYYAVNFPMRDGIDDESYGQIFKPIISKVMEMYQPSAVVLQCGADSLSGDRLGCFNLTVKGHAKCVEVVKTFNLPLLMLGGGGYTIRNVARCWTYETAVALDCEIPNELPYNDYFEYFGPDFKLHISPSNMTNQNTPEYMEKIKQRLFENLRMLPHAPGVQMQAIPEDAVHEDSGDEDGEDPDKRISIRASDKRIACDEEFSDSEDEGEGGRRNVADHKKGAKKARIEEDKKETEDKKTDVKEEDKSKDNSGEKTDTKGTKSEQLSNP

[26] = test system: MDA-MB-231; assay: Induction of cell cycle arrest in human MDA-MB-231 cells assessed as G0/G1 phase accumulation at 2 uM incubated for 24 hrs by PI staining based flow cytometry analysis (reference value: 29.10 %); type: functional
[27] = Toxicity in BALB/c mouse xenografted with human MDA-MB-231 cells assessed as effect on body weight at 25 mg/kg, ip administered for 34 days and measured on day 34; type: organism-based; settings: in vivo, 816 h, time 34 day
[28] = Toxicity in BALB/c mouse xenografted with mouse 4T1 cells assessed as effect on body weight at 50 mg/kg, po administered for 22 days and measured on day 22; type: organism-based; settings: in vivo, 528 h, time 22 day
[29] = test system: 4T1; assay: Induction of apoptosis in mouse 4T1 cells assessed as late apoptotic cells at 1 uM incubated for 72 hrs by annexinV-FITC and PI staining based flow cytometry analysis (reference value: 2.24 %); type: functional
[30] = test system: A549; assay: Cytotoxicity against human A549 cells assessed as reduction in cell viability incubated for 48 hrs by MTT assay; type: functional, cell-based; settings: A549, 48 h
[31] = test system: T47D; assay: Cytotoxicity against human T47D cells assessed as reduction in cell viability incubated for 48 hrs by MTT assay; type: functional, cell-based
[32] = test system: 4T1; assay: Induction of apoptosis in mouse 4T1 cells assessed as viable cells at 5 uM incubated for 72 hrs by annexinV-FITC and PI staining based flow cytometry analysis (reference value: 91.1 %); type: functional; settings: read-out: Activity

Compound: CN(C)CCOc1ccc(-c2cc(=O)c3c(O)cc(OCCCCCC(=O)NO)cc3o2)cc1.Cl
- Ratio IC50 [1]: 2
- IC50 [2]: > 10000 nM
- Tmax [3]: 20 min
- IC50 [4]: 3280 nM
- Cmax [5]: 2180 ng/mL
- Activity [6]: 0.11%
- Activity [7]: 8.09%
- IC50 [8]: 2500 nM
- IC50 [9]: > 10000 nM
- IC50 [10]: 307 nM
- Activity [11]: 11.51%
- Activity [12]: inactive
- IC50 [13]: 4700 nM
- Activity [14]: Non-Toxic
- bioavailability [15]: 57.8%
- TGI [16]: Active
- MRT [17]: 74.9 min
- Activity [18]: 25.58%
- viability at 1 µM [19]: 64.8%
- IC50 [20]: 2720 nM
- viability at 1 µM [21]: 72.3%
- Activity [22]: Dose-dependent effect
- IC50 [23]: > 10000 nM
- IC50 [24]: 3310 nM
- IC50 [25]: 58.5 nM
- Activity [26]: 61.9%
- Activity [27]: Non-Toxic
- Activity [28]: Non-Toxic
- Activity [29]: 8.59%
- IC50 [30]: 1080 nM
- IC50 [31]: 1530 nM
- viability at 5 µM [32]: 22.5%
